Results from PubChem BioAssay AID1552 (Sanford-Burnham Center for Chemical Genomics, 2009).
Activity calls are given as the source filed them. How the calls were made is not given here.

Target: Ubiquitin-conjugating enzyme E2 N (Homo sapiens) (UniProt P61088)
Test: UBE2N binders by NMR, biophysical, purified protein (AID 1552)
Settings: NMR binding to purified UBE2N

Chain of Ubiquitin-conjugating enzyme E2 N (Homo sapiens) (P61088 whole entry, looked up): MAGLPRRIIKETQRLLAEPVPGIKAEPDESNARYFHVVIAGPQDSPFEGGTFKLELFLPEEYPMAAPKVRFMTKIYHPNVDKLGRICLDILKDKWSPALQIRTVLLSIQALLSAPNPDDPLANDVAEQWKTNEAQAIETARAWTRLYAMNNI

SMILES | Kd
CC(C)(C)CC(=O)NC1=NCCS1 | > 4 mM (inactive)
Cc1noc(C)c1C(=O)N1CCN(c2ncccn2)CC1 | > 4 mM (inactive)
O=c1[nH]cc(N2CCCCC2)c(=O)[nH]1 | > 4 mM (inactive)
COc1ccc(C2=CC(=O)C=CC2=O)cc1 | > 4 mM (inactive)
Cc1nn(-c2ccccc2C(=O)O)c(=O)c2ccccc12 | > 4 mM (inactive)
NC(=O)CNC(=O)c1ccc2ccccc2n1 | > 4 mM (inactive)
COC1=CC(C)[C@@H]2C[C@H]3OC(=O)C[C@H]4C(C)=C(OC)C(=O)C([C@@]34C)[C@@]2(C)C1=O (stereo partly specified) | > 4 mM (inactive)
CCCCCC/C=C\CCCCCCCc1cccc(O)c1C(=O)O | > 4 mM (inactive)
CS(=O)(=O)N/N=C/c1cccs1 | > 4 mM (inactive)
CC(=O)O[C@H]1C[C@@H](OC(C)=O)C(C)(C)C2C[C@@H](O)[C@]3(C)C(CC[C@@]4(C)[C@H](c5ccoc5)OC(=O)[C@H]5O[C@]543)[C@]21C (stereo partly specified) | > 4 mM (inactive)
Cc1cc(C)n2nc(Cc3ccccc3)nc2n1 | > 4 mM (inactive)
O=c1[nH]c(=S)c2c(n1-c1ccccc1)CCC2 | > 4 mM (inactive)
O=C(Nn1cnnc1)c1ccccc1-c1ccccc1 | > 4 mM (inactive)
CCCCCC1C(=O)CCC1CC(=O)O (stereo unspecified) | > 4 mM (inactive)
O=C(O)C1CSC(c2cc3ccccc3nc2Cl)N1 (stereo unspecified) | > 4 mM (inactive)
CC(=O)c1cc(C(N)=O)c(=S)[nH]c1C | > 4 mM (inactive)
Nc1ccccc1OC(F)(F)F | > 4 mM (inactive)
Cc1occc1C(=O)Nc1ccc2c(c1)OCO2 | > 4 mM (inactive)
CC(C)(C)c1cc(CN)c(C(=O)O)o1 | > 4 mM (inactive)

SMILES | Kd
O=[N+]([O-])c1cccc2c1nnn2C(CO)OCCO (stereo unspecified) | > 4 mM (inactive)
Cc1nn2c(=O)nc3sc4c(c3c2[nH]c1=O)CCCC4 | > 4 mM (inactive)
O=C(NCc1ccccc1)c1cnsn1 | > 4 mM (inactive)
COc1ccc2c(c1O)-c1c(OC)c(OC)cc3c1[C@H](C2)N(C)CC3 | > 4 mM (inactive)
Cc1cccc(C(C)C)c1NC(=O)c1cccnc1 | > 4 mM (inactive)
Nc1cc(=O)[nH]c(=O)n1-c1ccccc1 | > 4 mM (inactive)
O=c1c(O)cccc2cc(O)c(O)c(O)c12 | > 4 mM (inactive)
O=c1c(-c2ccccc2)coc2cc(O)cc(O)c12 | > 4 mM (inactive)
CCOC(=O)Cc1nc2ccccc2[nH]1 | > 4 mM (inactive)
COc1cccc(/C=C/C(=O)O)c1C(C)C | > 4 mM (inactive)
NC(=S)NC(=O)CN1C(=O)c2ccccc2C1=O | > 4 mM (inactive)
CSc1ncc(C(=O)O)n1Cc1ccccc1 | > 4 mM (inactive)
COc1c2occc2c(OC)c2c(=O)cc(C)oc12 | > 4 mM (inactive)
CS(=O)(=O)c1ccccc1C(=O)Nc1nccs1 | > 4 mM (inactive)
Cc1cc(SCCF)n2ncnc2n1 | > 4 mM (inactive)
NC(=O)CCS(=O)(=O)CCN1CCOCC1 | > 4 mM (inactive)
Cc1ccn(S(=O)(=O)c2ccc(F)cc2)n1 | > 4 mM (inactive)
CCOCC(=O)N1CCc2ccccc21 | > 4 mM (inactive)
Nc1nc(=S)n2c(n1)oc1ccccc12 | > 4 mM (inactive)

SMILES | Kd
Cc1c(O)c(O)cc2c1CC=C1[C@@]2(C)CC[C@@]2(C)C3C[C@](C)(C(=O)O)CC[C@]3(C)CC[C@]12C (stereo partly specified) | > 4 mM (inactive)
COC(=O)c1ccc(/C=C2/NC(=S)NC2=O)cc1 | > 4 mM (inactive)
CC(=O)N1CCc2cc(NC(=O)c3ccc(C)cc3)ccc21 | > 4 mM (inactive)
Cn1c(=O)c2c(ncn2CCNC2=NCCC2)n(C)c1=O | > 4 mM (inactive)
CCCNC(=O)c1cnc2n(c1=O)CCS2 | > 4 mM (inactive)
Nc1ncnc2c1ncn2CCN1CCCCC1 | > 4 mM (inactive)
O=C(Cc1c(F)cccc1Cl)Nc1ccncc1 | > 4 mM (inactive)
COC1=C(OC)C(=O)C(C/C=C(\C)CC/C=C(\C)CC/C=C(\C)CC/C=C(/C)CC/C=C(\C)CC/C=C(\C)CC/C=C(\C)CC/C=C(\C)CC/C=C(\C)CCC=C(C)C)=C(C)C1=O | > 4 mM (inactive)
COc1ccc(Cc2nnc3c4cnn(C)c4ncn23)cc1 | > 4 mM (inactive)
CC(C)=CC(=O)Nc1ccccc1Br | > 4 mM (inactive)
CC1CC[C@]2(NC1)O[C@H]1CC3C4CC[C@H]5C[C@@H](O)CC[C@]5(C)C4CC[C@]3(C)[C@H]1[C@@H]2C (stereo partly specified) | > 4 mM (inactive)
O=c1n(-c2cccc(Cl)c2)c(=O)n2n1CCC2 | > 4 mM (inactive)
CC1(C)Cc2nc3[nH]c(=S)[nH]c(=O)c3cc2CO1 | > 4 mM (inactive)
Nc1scc[n+]1CC(=O)[O-] | > 4 mM (inactive)
COc1ccc2c(c1)OCC(Cc1ccc(OC)c(OC)c1)C2=O (stereo unspecified) | > 4 mM (inactive)
Cn1nc(C(=O)NCc2cccnc2)c2ccccc2c1=O | > 4 mM (inactive)
OCc1ccc(-n2ccnc2)cc1 | > 4 mM (inactive)
CC(C)=CC(=O)Nc1ccccc1C(N)=O | > 4 mM (inactive)
